Source: ChEMBL document CHEMBL4610060, “Orally bioavailable amine-linked macrocyclic inhibitors of factor XIa” (Bioorg Med Chem Lett, 2020)

Assays:
[1] = Volume of distribution at steady state in Sprague-Dawley rat at 0.52 mg/kg, iv or 1.04 mg/kg, po measured upto 24 hrs by LC-MS/MS analysis; type: ADME, organism-based; conditions: in vivo, read-out: Vdss
[2] = Clearance in Sprague-Dawley rat at 0.52 mg/kg, iv or 1.04 mg/kg, po measured upto 24 hrs by LC-MS/MS analysis; type: ADME, organism-based; conditions: in vivo
[3] = Oral bioavailability in Sprague-Dawley rat at 1.04 mg/kg measured upto 24 hrs by LC-MS/MS analysis; type: ADME, organism-based; conditions: in vivo
[4] = Metabolic stability in human liver microsomes assessed as half life; type: ADME, Microsome
[5] = Half life in Sprague-Dawley rat at 0.52 mg/kg, iv or 1.04 mg/kg, po measured upto 24 hrs by LC-MS/MS analysis; type: ADME, organism-based; conditions: in vivo
[6] = Metabolic stability in rat liver microsomes assessed as half life; type: ADME, Microsome
Coagulation factor XI = Coagulation factor XI (Homo sapiens, UniProt P03951); assay: Inhibition of recombinant human activated coagulation factor XI using pyro-Glu-Pro-Arg-pNA as substrate by spectrophotometry
Plasma = assay: Anticoagulant activity in human plasma assessed as EC1.5 of activated partial thromboplastin time by coagulometric analysis; type: functional
[7] = Permeability across apical to basolateral side in human Caco2 cells; type: ADME, cell-based; conditions: Caco-2, read-out: permeability
[8] = AUC in Sprague-Dawley rat at 1.04 mg/kg, po measured upto 24 hrs by LC-MS/MS analysis; type: ADME, organism-based; design: time < 24 hr, dose 1.04 mg/kg, route oral; conditions: in vivo
[9] = Permeability across basolateral to apical side in human Caco2 cells; type: ADME, cell-based; conditions: Caco-2, read-out: permeability

Chain of Coagulation factor XI (P03951 19-387 limits assumed): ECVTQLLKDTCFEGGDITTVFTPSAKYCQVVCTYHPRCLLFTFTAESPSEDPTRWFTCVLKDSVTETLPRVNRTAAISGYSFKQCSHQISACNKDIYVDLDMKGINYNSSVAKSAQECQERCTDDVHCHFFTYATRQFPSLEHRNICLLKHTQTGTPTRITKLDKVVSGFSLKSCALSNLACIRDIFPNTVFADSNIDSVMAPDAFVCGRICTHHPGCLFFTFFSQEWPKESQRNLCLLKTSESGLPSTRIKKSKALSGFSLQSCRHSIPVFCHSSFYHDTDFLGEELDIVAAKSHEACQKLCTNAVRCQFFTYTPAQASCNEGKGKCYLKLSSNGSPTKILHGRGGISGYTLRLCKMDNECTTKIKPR
Chain of Coagulation factor XI (P03951 388-625 limits assumed): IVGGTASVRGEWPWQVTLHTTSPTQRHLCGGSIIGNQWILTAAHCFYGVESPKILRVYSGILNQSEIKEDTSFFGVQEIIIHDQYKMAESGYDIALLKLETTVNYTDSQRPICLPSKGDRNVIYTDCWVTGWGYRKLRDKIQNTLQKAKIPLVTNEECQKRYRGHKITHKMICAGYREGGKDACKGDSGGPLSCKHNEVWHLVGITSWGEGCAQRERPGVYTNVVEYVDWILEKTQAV

Question: Which results are given for `COC(=O)Nc1ccc2c(c1)N[C@@H](C(=O)OC)CCCC[C@H](NC(=O)/C=C/c1cc(Cl)ccc1-n1cnnn1)c1cc-2ccn1`?
Answer: Vd [1]: 0.53 L/kg; clearance [2]: 5.2 mL/min/kg; bioavailability [3]: 23%; half-life [4]: 111 min; half-life [5]: 72 min; half-life [6]: 87 min; Ki (Coagulation factor XI): 3.4 nM; EC1.5 (Plasma): 3.4 µM; Papp A→B [7]: < 1.5 ×10⁻⁶ cm/s; AUC at 24 h [8]: 0.889 µM·h; Papp B→A [9]: 21.3 ×10⁻⁶ cm/s
